Assay [1] addresses T1, recombinant ATGL (Mus musculus, UniProt Q8BJ56).
T1 construct: Strep-tag; made in house; host or cells: E. coli (XL-1), vector pASK-IBA5+; crude lysate supernatant, not purified
T1 sequence (Q8BJ56 1-486): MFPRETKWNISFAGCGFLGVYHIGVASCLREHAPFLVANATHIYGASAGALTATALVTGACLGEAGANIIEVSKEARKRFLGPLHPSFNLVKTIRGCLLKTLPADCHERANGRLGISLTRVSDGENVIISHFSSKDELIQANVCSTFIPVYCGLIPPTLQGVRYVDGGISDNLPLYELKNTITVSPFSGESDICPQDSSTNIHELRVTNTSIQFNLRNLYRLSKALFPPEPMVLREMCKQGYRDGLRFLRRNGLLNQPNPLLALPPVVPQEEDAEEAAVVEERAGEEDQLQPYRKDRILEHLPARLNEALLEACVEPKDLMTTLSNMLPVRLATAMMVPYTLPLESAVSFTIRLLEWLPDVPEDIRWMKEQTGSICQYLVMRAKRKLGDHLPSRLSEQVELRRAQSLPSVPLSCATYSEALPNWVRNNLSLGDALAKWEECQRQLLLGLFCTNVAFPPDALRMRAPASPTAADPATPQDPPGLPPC
Nature of the assay: TG hydrolase activity of E. coli lysates overexpressing recombinant strep-tagged ATGL and CGI-58, radiolabeled triolein substrate. The assay is classed as biochemical. How it is done: • Figure 1. Structure of compounds 1 to 3 (reference) and compound 4 (atglistatin) and effect on ATGL activity. For determination of lipase activity, lysates of E. coli overexpressing recombinant strep-tagged ATGL and CGI-58 were incubated with a substrate containing radiolabeled [9,10-3H(N)]-triolein. Subsequently, FA were extracted and quantified by liquid scintillation counting. Lysates of cells expressing empty vector were set as blank. Inhibitors were solubilized in DMSO and added at the indicated concentrations. DMSO alone was used as negative control. (A) Structure and IC50 values of compounds 1-4. (B) Dose-dependent inhibition of ATGL in the presence of compound 3 and 4. […] (C) Lineweaver-Burk plots for kinetic analysis of ATGL inhibition. Experiments were performed at varying concentrations of substrate (0.05 - 3 mM) in presence and absence of compound 4 (Atglistatin). […] Data are presented as mean +/-S.D. of triplicate determinations. Data for compound 4 are representative for at least three independent experiments. • Figure 2. Selectivity of Atglistatin. Lipase activity of ATGL, HSL, lipoprotein lipase, and pancreatic lipase was determined using triolein as substrate. MGL activity was detected in the presence of rac-(1,3)-monooleoylglycerol as substrate. Inhibitors were solubilized in DMSO and added at the indicated concentrations. DMSO alone was used as negative control. (A) Dose-dependent inhibition of TG hydrolase activity in WAT lysates obtained from wild-type and ATGL-ko mice. (B) Inhibition of TG hydrolase activity in wild-type WAT lysates by Atglistatin (40 µM) and by the HSL inhibitor Hi 76-0079 (20 µM). (C) Effect of Atglistatin on murine MGL (purified from E. coli), and murine HSL (overexpressed in COS-7 lysates) activity. (D) Effect of Atglistatin on purified bovine LPL (Sigma) and pancreatic lipase (from porcine pancreas, Sigma). Data are presented as mean +/- S.D. of triplicate determinations and are representative for at least three independent experiments (p < 0.05 **, p < 0.01; ***, p < 0.001). • Figure 3 Inhibition of lipolysis in 3T3-L1 adipocytes and WAT organ cultures. (A,B) Differentiated 3T3 cells were preincubated with the indicated concentrations of Atglistatin. Thereafter, the medium was replaced by DMEM containing 2% BSA (fatty acid free), 10 µM forskolin, in the presence or absence of inhibitors. The release of FA (A) and glycerol (B) in the media was determined using commercial kits. Basal FA and glycerol release (not shown) was barely detectable under the applied conditions. Data are presented as mean +/- SD and are representative for 2 independent experiments. (C-F) Effect of Atglistatin on WAT basal (C, D) and forskolin-stimulated (E, F) lipolysis. Adipose tissue pieces (∼15 mg, n=5 for each concentration) of wild-type mice were cultured for 8 h in DMEM containing 2 % FA-free BSA and the indicated concentrations of Atglistatin. Subsequently, the medium was replaced by identical fresh medium and samples were collected after incubation for another hour in the presence or in the absence of 10 µM forskolin. Atglistatin was solubilized in DMSO and DMSO alone was used as negative control. Data are presented as mean +/- S.D. (*, p < 0.05 **, p < 0.01; ***, p < 0.001). • Figure 4 Inhibition of lipolysis in vivo. […] At the indicated timepoints blood was taken retroorbitally and plasma parameters were measured using commercial kits. […] 8 h after gavage blood was taken retroorbitally and plasma parameters were measured using commercial kits. […]

For assay [2], the target named is T2, murine HSL (Mus musculus, UniProt P54310).
T2 construct: His-tag (vector pcDNA4/HisMax); made in house; host or cells: COS-7 cells, transient transfection, 1,000 x g lysate
T2 sequence (P54310 1-759): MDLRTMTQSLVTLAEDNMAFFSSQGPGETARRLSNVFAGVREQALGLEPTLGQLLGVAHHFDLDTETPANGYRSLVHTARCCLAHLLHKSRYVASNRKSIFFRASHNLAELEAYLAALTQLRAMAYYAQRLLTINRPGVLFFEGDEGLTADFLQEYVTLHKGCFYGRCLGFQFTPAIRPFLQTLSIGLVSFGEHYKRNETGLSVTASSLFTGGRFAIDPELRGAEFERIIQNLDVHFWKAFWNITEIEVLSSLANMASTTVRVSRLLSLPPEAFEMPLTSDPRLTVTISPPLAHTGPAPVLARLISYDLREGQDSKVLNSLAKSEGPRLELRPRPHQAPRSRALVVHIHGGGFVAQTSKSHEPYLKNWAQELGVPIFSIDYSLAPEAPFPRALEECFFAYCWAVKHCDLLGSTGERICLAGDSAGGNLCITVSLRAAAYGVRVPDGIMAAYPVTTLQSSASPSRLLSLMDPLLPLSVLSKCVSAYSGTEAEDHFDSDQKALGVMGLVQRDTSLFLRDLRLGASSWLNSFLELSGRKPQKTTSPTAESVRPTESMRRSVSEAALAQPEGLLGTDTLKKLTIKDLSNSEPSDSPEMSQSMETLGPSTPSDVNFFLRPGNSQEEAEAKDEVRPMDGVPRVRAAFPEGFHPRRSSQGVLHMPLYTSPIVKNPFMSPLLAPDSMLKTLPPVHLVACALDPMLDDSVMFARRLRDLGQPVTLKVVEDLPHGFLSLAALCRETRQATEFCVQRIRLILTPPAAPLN
Nature of the assay: HSL activity, overexpressed in COS-7 lysates, triolein substrate. The assay is classed as biochemical. The note with it: Fig. 2C. How it is done:
• Figure 1. Structure of compounds 1 to 3 (reference) and compound 4 (atglistatin) and effect on ATGL activity. For determination of lipase activity, lysates of E. coli overexpressing recombinant strep-tagged ATGL and CGI-58 were incubated with a substrate containing radiolabeled [9,10-3H(N)]-triolein. Subsequently, FA were extracted and quantified by liquid scintillation counting. Lysates of cells expressing empty vector were set as blank. Inhibitors were solubilized in DMSO and added at the indicated concentrations. DMSO alone was used as negative control. (A) Structure and IC50 values of compounds 1-4. (B) Dose-dependent inhibition of ATGL in the presence of compound 3 and 4. […] (C) Lineweaver-Burk plots for kinetic analysis of ATGL inhibition. Experiments were performed at varying concentrations of substrate (0.05 - 3 mM) in presence and absence of compound 4 (Atglistatin). […] Lipase activity of ATGL, HSL, lipoprotein lipase, and pancreatic lipase was determined using triolein as substrate. MGL activity was detected in the presence of rac-(1,3)-monooleoylglycerol as substrate. […] The release of FA (A) and glycerol (B) in the media was determined using commercial kits. […] At the indicated timepoints blood was taken retroorbitally and plasma parameters were measured using commercial kits. […] 8 h after gavage blood was taken retroorbitally and plasma parameters were measured using commercial kits. […]

Structures are written as SMILES.

As for `CN(C)C(=O)Nc1cccc(-c2ccc(N(C)C)cc2)c1` [Atglistatin, atglistatin], the inhibitory constant (Ki) (as a rule, a measure of affinity in units of concentration, obtained from inhibition or displacement) in assay [1] turned out to be 500 ± 200 nM. Besides, in assay [1] (increase in apparent Km, unchanged Vmax, substrate 0.05 - 3 mM), the “mechanism of ATGL inhibition” value was “competitive inhibitor”. Further, the concentration for half-maximal inhibition (IC50) (as a rule, the concentration at which inhibition is half-maximal) in assay [1] (inhibition of the activity of recombinant ATGL) came to 700 nM. In assay [2], the “effect on HSL activity” value is given as “only minor effects”.

Values taken from patent EP2948433B1, “ATGLISTATIN AS LIPASE INHIBITOR” (Technische Universität Graz, priority 2013, dated 2014).
